The values below come from US20220354825A1, “PHARMACEUTICAL COMPOSITION FOR PREVENTION OR TREATMENT OF INFLAMMATORY DISEASES COMPRISING NAPHTHOQUINONE DERIVATIVE” (LMITO THERAPEUTICS INC., priority 2019, published 2022).

One experiment has as its target NQO1 (Homo sapiens, UniProt P15559). Briefly: In vitro NQO1 enzyme activity assay (cytochrome C reduction). Format: biochemical. Particulars: NQO1 2 ng. How it is done: In order to evaluate the enzymatic activities of compounds on NQO1, the experiments were performed as follows:
A compound to measure NQO1 enzyme activity was dissolved in DMSO to prepare a 10 mM stock solution, which was then diluted with DMSO to prepare a working solution at a concentration of 250 μM. For an enzyme reaction solution, 50 μL of 1.54 mM cytochrome C solution was added to 900 μL of 50 mM Tris-HCl (pH 7.5) solution containing 0.14% BSA, and then the prepared working solution at 250 μM was added. After adding 20 μL of 100 ng/ml NQO1 protein, […] solution was added so as to adjust the total volume to 1 mL, and then the change of absorbance was measured at 550 nm for 10 minutes. The change of absorbance was measured at 550 nm for 10 minutes using 1 mL cuvette. The reaction rate was observed through the increase in absorbance as cytochrome C was reduced at 550 nm for 10 minutes, to obtain an absorbance value, and the activity for NQO1 was measured as the reduced amount of cytochrome C (nmol reduced cytochrome C/min/μg NQO1 protein).
Absorption coefficient of Cytochrome C: 21.1 (μmol/mL)-1 cm^−1
Equipment=Cary 100 UV-Vis Spectrophotometer

Experiment [1] concerns primary bone marrow-derived macrophages (BMDMs). Put plainly: NAD+ measurement in macrophages after LPS/ATP. Particulars: LPS/ATP + 1, 5, 10 μM compound. Format: cell-based, C57BL/6 mouse. How it is done: The primary bone marrow-derived macrophages (BMDMs) isolated from C57BL/6 mouse were incubated in DMEM medium involving macrophage colony-stimulating factor (M-CSF; R&D Systems, 416-ML) during 3 to 5 days. NAD^+ production and NAD^+/NADH ratio were measured in isolated BMDMs through using NAD/NADH Assay Kit(ab65348) supplied by Abcam company. All assays were performed according to the manufacturer's product manual.
FIGS. 1 to 5 show NAD^+ changes in the macrophage when treated with compounds 6, 16, 17, 22 and 27 respectively (in order from left in the figure: Untreatment, LPS/ATP, LPS/ATP+1 μM compound, LPS/ATP+5 μM compound, and LPS/ATP+10 μM compound).

Experiment [2] shares this test system. Briefly: NAD+/NADH measurement in macrophages after LPS/ATP. Format: cell-based, C57BL/6 mouse. Particulars: LPS/ATP + 1, 5, 10 μM compound. How it is done:
The primary bone marrow-derived macrophages (BMDMs) isolated from C57BL/6 mouse were incubated in DMEM medium involving macrophage colony-stimulating factor (M-CSF; R&D Systems, 416-ML) during 3 to 5 days. NAD^+ production and NAD^+/NADH ratio was measured in isolated BMDMs through using NAD/NADH Assay Kit(ab65348) supplied by Abcam company. All assays were performed according to the manufacturer's product manual.
FIGS. 6 to 10 show NAD^+/NADH ratio changes in the macrophage when treated with compounds 6, 16, 17, and 27 respectively (in order from left in the figure: Untreatment, LPS/ATP, LPS/ATP+1 μM compound, LPS/ATP+5 μM compound, and LPS/ATP+10 μM).

Experiment [3] shares this test system. Put plainly: Mitochondrial reactive oxygen species measurement (MitoSox, FACS). The format is cell-based, C57BL/6 mouse. Conditions: LPS/ATP + 1, 5, 10 μM compound. How it is done: The primary bone marrow-derived macrophages (BMDMs) isolated from C57BL/6 mouse were incubated in DMEM medium involving macrophage colony-stimulating factor (M-CSF; R&D Systems, 416-ML) during 3 to 5 days. Isolated BMDMs were stained by 1 μM MitoSox (Molecular Probes M36008) for 15 min. After washing the cells into PBS and collecting the cells, mitochondrial reactive oxygen species was measured by FACS.
FIGS. 11 and 12 show mitochondrial reactive oxygen species changes in the macrophage when treated with compounds 6 and 27, respectively (in order from left in the figure: Untreatment, LPS/ATP, LPS/ATP+1 μM compound, LPS/ATP+5 μM compound, and LPS/ATP+10 μM compound).

The test system is the same in experiment [4]. Put plainly: ATP measurement in LPS-activated macrophages. Format: cell-based, C57BL/6 mouse. Particulars: LPS + 1, 5, 10 μM compound. How it is done:
The primary bone marrow-derived macrophages (BMDMs) isolated from C57BL/6 mouse were incubated in DMEM medium involving macrophage colony-stimulating factor (M-CSF; R&D Systems, 416-ML) during 3 to 5 days. ATP content in the cell was measured through using ATP colorimetric/fluorometric kit after activation of macrophages by treatment of 100 ng/mL LPS in DMEM medium including […]. All assays were performed according to the manufacturer's product manual.
FIGS. 13 to 17 show the measurement of ATP amounts in the macrophage when treated with Compounds 6, 16, 17, 22 and 27 respectively (in order from left in the figure: Untreatment, LPS/ATP, LPS/ATP+1 μM compound, LPS/ATP+5 μM compound, and LPS/ATP+10 μM compound).

Experiment [5] has the same test system. Briefly: OCR (oxygen consumption rate) measurement, Seahorse XF24. The format is cell-based, C57BL/6 mouse. Particulars: macrophages after treatment of LPS and ATP. How it is done: The primary bone marrow-derived macrophages (BMDMs) isolated from C57BL/6 mouse were incubated in DMEM medium involving macrophage colony-stimulating factor (M-CSF; R&D Systems, 416-ML) during 3 to 5 days. OCR was measured using Seahorse XF24 Extracellular Flux Analyzer in isolated bone marrow-derived macrophages.

Experiment [6] has as its system DSS-induced acute colitis mouse model. Put plainly: Efficacy in ulcerative colitis mouse model (DSS-induced acute colitis). Conditions: 5% DSS for 6 days; for MPO activity / cytokine expressions (TNF-α, IL-6, IL-1β and IL-18, ELISA) / expressions of sirtuin 1 and sirtuin 7: colon tissue homogenate; for MPO activity / cytokine expressions (TNF-α, IL-6, IL-1β and IL-18, ELISA) / expressions of sirtuin 1 and sirtuin 7 / survival rates: treated during 20 days; for histological finding of colon tissue (immunohistochemistry, histological score, H&E): treated during 7 days, vs non-treated colon tissue; for colitis clinic scores (body weight, stool consistency, bleeding combined) / degree of body weight loss: treated during 10 days; for colitis clinic scores (body weight, stool consistency, bleeding combined) / degree of body weight loss / survival rates: vs non-treated mouse. Format: in vivo, C57BL/6 female mouse. How it is done: DSS-induced acute colitis mouse model was prepared using 6-week-old C57BL/6 female mouse in the following method from Opal S M et al., Jama., 309(11):1154-1162(2013) and Hotchkiss R S et al., Journal of immunology., 176(9):5471-5477(2006).
The clinical score in colitis were measured daily for body weight, rectal bleeding, total bleeding loss, and fecal concentration during colitis induction.
For immunohistochemistry of tissue section, mouse spleen, lung and colon were fixed using 10% formalin and embedded in paraffin. Paraffin sections were cut to a thickness of 4 μm, and H&E(hematoxylin and eosin) staining was performed. The histopathological score was measured in accordance with the criteria described in Osuchowski M F, et al., Journal of Immunology, 177(3):1967-74(2006); and Liu W, et al., Cell Research, 25(6): 691-706(2015).
The sandwich ELISAs and MPO assay were performed according to conventional methods in this field. TNF-α, IL-6, IL-1β, IL-18 ELISA(sandwich ELISAs) were performed using BD OptEIA ELISA Kit and MPO assay was performed using MPO Activity assay kit(ab105136) of Abcam company.
The data obtained from independent experiment (means±SD) was analyzed by using two-tailed Student's t-test. The differences were considered significant in p<0.05. For survival comparison, the results were graphically described and analyzed according to kaplan-Meier survival analysis, that is, the product-limit method, using log-rank(Mantel-Cox) tests (Prism, version 5.0, GraphPad Software).
For orientation: ELISA stands for enzyme-linked immunosorbent assay.

Sequence of NQO1 (P15559 whole entry, species assumed): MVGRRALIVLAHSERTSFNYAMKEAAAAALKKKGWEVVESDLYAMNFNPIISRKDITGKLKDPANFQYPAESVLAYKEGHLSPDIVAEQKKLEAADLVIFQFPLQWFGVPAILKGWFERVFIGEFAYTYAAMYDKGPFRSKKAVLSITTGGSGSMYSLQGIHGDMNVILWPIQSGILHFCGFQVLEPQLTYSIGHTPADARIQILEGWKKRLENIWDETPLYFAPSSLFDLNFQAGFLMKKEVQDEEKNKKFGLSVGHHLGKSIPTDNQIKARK

On to `COc1nn(-c2ccccc2)c2c1C(=O)C(=O)c1ccccc1-2` [Compound 6], for which the “NQO1 Activity” value at NQO1 (Compound 0.2 μM) is listed as 3782 nmol of reduced Cytochrome C/min/μg NQO1 Protein. Also, on NQO1 (Compound 5 μM), the “NQO1 Activity” value is 7706 nmol of reduced Cytochrome C/min/μg NQO1 Protein. The “NAD+ production” value in experiment [1] was “increased in dose-dependent manner”. In addition, the “NAD+/NADH ratio” value in experiment [2] is “increased in dose-dependent manner”. The “mitochondrial reactive oxygen species amounts” value in experiment [3] is on record as “decreased in dose-dependent manner”. The ATP amounts result in experiment [4] is recorded as “increased in dose-dependent manner”. Moreover, in experiment [5], the “overall mitochondrial OCR” value is given as “increased”. Besides, in experiment [6], the MPO activity entry is reported as “decreased”; the “cytokine expressions (TNF-α, IL-6, IL-1β and IL-18, ELISA)” value was “decreased”; the “expressions of sirtuin 1 and sirtuin 7” value was “significantly increased”; the “histological finding of colon tissue (immunohistochemistry, histological score, H&E)” value is given as “significantly improved than non-treated colon tissue”. Besides, in experiment [6], the “colitis clinic scores (body weight, stool consistency, bleeding combined)” value is “significantly ameliorated compared with non-treated mouse”; the “degree of body weight loss” value is reported as “significantly slower than non-treated mouse”; the survival rates result is listed as “higher than non-treated mouse”.
In the case of `CC(C)n1c2c(c(=O)n1C)C(=O)C(=O)c1ccccc1-2` [Compound 16], the “NQO1 Activity” value at NQO1 (Compound 0.2 μM) is on record as 4441 nmol of reduced Cytochrome C/min/μg NQO1 Protein. The “NAD+ production” value in experiment [1] is recorded as “increased in dose-dependent manner”. Also, the “NAD+/NADH ratio” value in experiment [2] is reported as “increased in dose-dependent manner”.
Take `COc1nn(C(C)C)c2c1C(=O)C(=O)c1ccccc1-2` [Compound 17]: the “NQO1 Activity” value on NQO1 (Compound 0.2 μM) is given as 5843 nmol of reduced Cytochrome C/min/μg NQO1 Protein. Further, the “NAD+ production” value in experiment [1] is listed as “increased in dose-dependent manner”. Moreover, in experiment [2], the “NAD+/NADH ratio” value is recorded as “increased in dose-dependent manner”.
As for `COc1nn(-c2ccccc2)c2c1C(=O)C(=O)c1cc(F)ccc1-2` [Compound 22], at NQO1 (Compound 0.2 μM), the “NQO1 Activity” value is recorded as 6978 nmol of reduced Cytochrome C/min/μg NQO1 Protein. For the same compound, the “NAD+ production” value in experiment [1] is given as “increased in dose-dependent manner”. Moreover, the “NAD+/NADH ratio” value in experiment [2] is given as “increased in dose-dependent manner”.
Take `CC(C)c1nc2c([nH]1)C(=O)C(=O)c1ccccc1-2` [Compound 27]: the “NQO1 Activity” value at NQO1 (Compound 0.2 μM) is 2269 nmol of reduced Cytochrome C/min/μg NQO1 Protein. Also, the “NAD+ production” value in experiment [1] is reported as “increased in dose-dependent manner”. In addition, the “NAD+/NADH ratio” value in experiment [2] was “increased in dose-dependent manner”. In addition, the “mitochondrial reactive oxygen species amounts” value in experiment [3] is on record as “decreased in dose-dependent manner”. The ATP amounts entry in experiment [4] is listed as “increased in dose-dependent manner”. In addition, the “overall mitochondrial OCR” value in experiment [5] is on record as “increased”. In experiment [6], the MPO activity result is listed as “decreased”; the “cytokine expressions (TNF-α, IL-6, IL-1β and IL-18, ELISA)” value is on record as “decreased”; the “expressions of sirtuin 1 and sirtuin 7” value is “significantly increased”; the “histological finding of colon tissue (immunohistochemistry, histological score, H&E)” value is recorded as “significantly improved than non-treated colon tissue”. Besides, in experiment [6], the “colitis clinic scores (body weight, stool consistency, bleeding combined)” value is reported as “significantly ameliorated compared with non-treated mouse”; the “degree of body weight loss” value is “significantly slower than non-treated mouse”; the survival rates result is “higher than non-treated mouse”.
